Where a SMILES comes first, the peptide text is derived from it. Bridges are numbered along the chain shown (N, C = ends). [ ]: non-standard residue; d: D form.
Assays:
[1] = target: T1, DOR (Homo sapiens, UniProt P41143); test: Calcium mobilization functional assay, agonist mode; assay type: cell-based; details: CHO cells co-expressing DOR and GαqG66Di5; Fluo-4 AM calcium signal; n = 5
T1 construct: expressed in transfected cells; host or cells: CHO cells (University of Ferrara), co-expressing GαqG66Di5

[2] = target: T2, human MOR (Homo sapiens, UniProt P35372); test: as above; assay type: cell-based; details: CHO cells co-expressing human MOR and Gαqi5; Fluo-4 AM calcium signal; n = 5; read-out: MOR pEC50 (CL95%) (converted)
T2 construct: expressed in transfected cells; host or cells: CHO cells (University of Ferrara), co-expressing Gαqi5

[3] = target: T3, human opioid receptor MOR (Homo sapiens, UniProt P35372); test: Radioligand binding assay, displacement of [3H]DAMGO; details: displacement of [3H]DAMGO from membranes of CHO cells transfected with human MOR, 50 mM Tris/HCl pH 7.4, 0.5% BSA, peptidase inhibitors, 2 h at 25 °C, mean ± SEM, n ≥ 3
T3 construct: purchased PerkinElmer (Krakow, Poland); host or cells: CHO cell membranes
Description: (§1) A radioligand binding assay was performed to determine the opioid receptor (OR) binding affinities of the novel analogs using commercially available membranes of Chinese hamster ovary cells (CHO) transfected with human recombinant ORs. [^3H]DAMGO, [^3H]deltorphin-2, and [^3H]U-69593 were used as the radioligands for MOR, DOR, and KOR, respectively. Tyr-[D-Lys-Phe-Phe-Asp]NH2 (1) was used as a reference opioid compound. […] None of them acquired significant DOR affinity.
(§2) To determine the affinity of peptide analogs to respective receptors, competition binding experiments were performed, as described in detail elsewhere.
(§3) Commercial membranes of CHO cells stably expressing either human ORs or NK1 receptor were used. [^3H]DAMGO, [^3H]deltorphin-2, and [^3H]U-69593 were employed as the competing radioligands for MOR, DOR, and KOR, respectively, while [^3H][Sar^9, Met(O2)^11]SP was utilized for the NK1 receptor. Membranes were incubated in a 0.5 mL volume of 50 mM Tris/HCl (pH = 7.4), 0.5% bovine serum albumin (BSA), with a number of peptidase inhibitors (bacitracin, bestatin, captopril) and various concentrations of radioligands for 2 h at 25 °C. Nonspecific binding was assessed in the presence of […] naloxone for ORs or SP for NK1 receptor.
(§4) The pharmacological terminology adopted in this paper is consistent with International Union of Basic and Clinical Pharmacology (IUPHAR) recommendations. Concentration–response curves were analyzed by nonlinear regression using Graph Pad Prism 6.0 (La Jolla, CA, USA). […]. […] Concentration–response curves were fitted with the four-parameter logistic nonlinear regression model (1) Effect=baseline+Emax−baseline/1+10^logEC50−X·n where X is the agonist concentration and n is the Hill coefficient. Ligand efficacy was expressed as intrinsic activity (α) calculated as a ratio of the peptide Emax to the Emax of the standard agonist (Supplementary Materials, Figure S7). […]. All statistical analyses were performed using Graph Pad Prism 6.0 (La Jolla, CA, USA). Differences between groups were analyzed with one-way ANOVA and a post hoc multiple comparison by the Student–Newman–Keuls test. A probability level of 0.05 or smaller was used to indicate statistical significance.

[4] = system: mice; test: Stool collection (stool mass, stool water content); assay type: in vivo; details: repeated i.p. injections 5 mg/kg, stool collected 90 min after injection on Days 1–6, compared to control group, n = 10
Description: In order to determine the influence of prolonged administration of the tested compounds on gastrointestinal passage, stool was collected for six days from mice used in the tolerance development test.
Figure 5 Effect of repeated i.p. injections of saline and the tested peptides on stool mass (A), stool water content (B), food intake (C), and water consumption (D). The data represent mean ± SEM, n = 10. Statistical significance was assessed using one-way ANOVA and a post hoc multiple comparison by the Student–Newman–Keuls test. *** p < 0.001, as compared to control.
After the i.p. injections of saline or peptides (Days 1–6), mice were placed in a separate clean cages and stool was collected for a period of 90 min. Fecal pellets were collected immediately after expulsion to avoid evaporation and placed in closed 1.5 mL tubes. Tubes were weighed to obtain the wet weight of the stool. Then, the tubes were opened and stool was dried overnight at 65 °C and reweighed to obtain the dry weight. The stool water content was calculated from the difference between the wet and dry stool weights.

[5] = target: T4, human opioid receptor DOR (Homo sapiens, UniProt P41143); test: Radioligand binding assay, displacement of [3H]deltorphin-2; details: displacement of [3H]deltorphin-2 from membranes of CHO cells transfected with human DOR, 50 mM Tris/HCl pH 7.4, 0.5% BSA, peptidase inhibitors, 2 h at 25 °C, mean ± SEM, n ≥ 3
T4 construct: purchased PerkinElmer (Krakow, Poland); host or cells: CHO cell membranes
Description: A radioligand binding assay was performed to determine the opioid receptor (OR) binding affinities of the novel analogs using commercially available membranes of Chinese hamster ovary cells (CHO) transfected with human recombinant ORs. […] Tyr-[D-Lys-Phe-Phe-Asp]NH2 (1) was used as a reference opioid compound.
as §2
(§5) Commercial membranes of CHO cells stably expressing either human ORs or NK1 receptor were used. […] Membranes were incubated in a 0.5 mL volume of 50 mM Tris/HCl (pH = 7.4), 0.5% bovine serum albumin (BSA), with a number of peptidase inhibitors (bacitracin, bestatin, captopril) and various concentrations of radioligands for 2 h at 25 °C.
(§6) The pharmacological terminology adopted in this paper is consistent with International Union of Basic and Clinical Pharmacology (IUPHAR) recommendations. Concentration–response curves were analyzed by nonlinear regression using Graph Pad Prism 6.0 (La Jolla, CA, USA). […] Concentration–response curves were fitted with the four-parameter logistic nonlinear regression model (1) Effect=baseline+Emax−baseline/1+10^logEC50−X·n where X is the agonist concentration and n is the Hill coefficient. Ligand efficacy was expressed as intrinsic activity (α) calculated as a ratio of the peptide Emax to the Emax of the standard agonist (Supplementary Materials, Figure S7). […] All statistical analyses were performed using Graph Pad Prism 6.0 (La Jolla, CA, USA). Differences between groups were analyzed with one-way ANOVA and a post hoc multiple comparison by the Student–Newman–Keuls test. A probability level of 0.05 or smaller was used to indicate statistical significance.

[6] = target: human NK1 (Homo sapiens, UniProt P25103); test: Radioligand binding assay, displacement of [3H][Sar9, Met(O2)11]SP; set-up: purchased PerkinElmer (Krakow, Poland); host or cells: CHO cell membranes; details: displacement of [3H][Sar9, Met(O2)11]SP from membranes of CHO cells transfected with human NK1 receptor; 50 mM Tris/HCl pH 7.4, 0.5% BSA, peptidase inhibitors, 2 h at 25 °C; mean ± SEM, n ≥ 3
Description: The binding assay was also used to examine the affinity of the synthesized hybrids for NK1 in commercial membranes of CHO cells stably expressing human NK1.
as §2, §5, §6

[7] = target: T5, human KOR (Homo sapiens, UniProt P41145); test: Calcium mobilization functional assay, agonist mode; assay type: cell-based; details: CHO cells co-expressing human KOR and Gαqi5; Fluo-4 AM calcium signal; n = 5; read-out: KOR pEC50 (CL95%) (converted)
T5 construct: expressed in transfected cells; host or cells: CHO cells (University of Ferrara), co-expressing Gαqi5

[8] = target: T6, human opioid receptor KOR (Homo sapiens, UniProt P41145); test: Radioligand binding assay, displacement of [3H]U-69593; details: displacement of [3H]U-69593 from membranes of CHO cells transfected with human KOR, 50 mM Tris/HCl pH 7.4, 0.5% BSA, peptidase inhibitors, 2 h at 25 °C, mean ± SEM, n ≥ 3
T6 construct: purchased PerkinElmer (Krakow, Poland); host or cells: CHO cell membranes
Description: as §1, §2, §3, §4

[9] = cited from earlier work
Text: Here, we report on the synthesis and the initial pharmacological testing of several hybrid peptides with opioid agonist/NK1 antagonist and opioid agonist/NK1 agonist profiles. We performed structure affinity/activity relationship studies, seeking hybrids that could simultaneously and potently bind opioid and NK1 receptors. Both types of hybrids were designed with the same opioid fragment to make the comparison of their activity easier. It was already documented in the literature that simultaneous activation of both MOR and KOR intensifies the analgesic effect of pure MOR agonists. There ...

T6 sequence (P41145 whole entry): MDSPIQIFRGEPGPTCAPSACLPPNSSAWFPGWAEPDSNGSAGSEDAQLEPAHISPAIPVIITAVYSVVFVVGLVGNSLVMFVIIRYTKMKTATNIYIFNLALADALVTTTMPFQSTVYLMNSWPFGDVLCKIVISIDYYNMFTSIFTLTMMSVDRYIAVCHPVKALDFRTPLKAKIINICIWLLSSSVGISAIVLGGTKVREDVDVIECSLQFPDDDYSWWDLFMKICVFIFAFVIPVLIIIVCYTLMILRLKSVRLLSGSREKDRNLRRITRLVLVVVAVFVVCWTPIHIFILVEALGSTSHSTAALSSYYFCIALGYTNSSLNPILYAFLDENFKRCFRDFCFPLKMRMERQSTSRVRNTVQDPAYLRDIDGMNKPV
T5 sequence (P41145 whole entry): as above
Sequence of human NK1 (P25103 whole entry): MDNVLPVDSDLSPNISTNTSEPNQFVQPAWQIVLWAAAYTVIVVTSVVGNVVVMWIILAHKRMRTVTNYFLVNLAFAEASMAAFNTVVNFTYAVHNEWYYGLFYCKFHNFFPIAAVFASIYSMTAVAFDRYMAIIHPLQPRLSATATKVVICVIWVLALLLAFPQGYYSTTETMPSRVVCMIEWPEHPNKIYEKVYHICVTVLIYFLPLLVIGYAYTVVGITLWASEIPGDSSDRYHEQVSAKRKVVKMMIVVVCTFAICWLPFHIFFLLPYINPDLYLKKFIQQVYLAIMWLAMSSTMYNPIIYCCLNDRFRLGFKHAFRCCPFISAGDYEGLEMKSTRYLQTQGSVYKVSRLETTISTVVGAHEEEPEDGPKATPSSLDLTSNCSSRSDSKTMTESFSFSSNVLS
T3 sequence (P35372 whole entry): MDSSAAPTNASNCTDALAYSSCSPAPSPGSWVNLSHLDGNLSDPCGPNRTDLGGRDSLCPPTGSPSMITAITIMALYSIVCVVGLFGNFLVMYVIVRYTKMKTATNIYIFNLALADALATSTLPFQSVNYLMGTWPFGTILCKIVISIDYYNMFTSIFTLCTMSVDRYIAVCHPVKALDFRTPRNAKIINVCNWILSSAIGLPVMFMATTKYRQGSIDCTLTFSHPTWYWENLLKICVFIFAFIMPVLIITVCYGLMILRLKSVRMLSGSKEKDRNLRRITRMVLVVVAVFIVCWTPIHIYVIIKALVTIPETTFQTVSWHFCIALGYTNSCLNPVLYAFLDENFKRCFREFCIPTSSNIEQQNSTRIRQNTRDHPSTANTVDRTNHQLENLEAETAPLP
T2 sequence (P35372 whole entry): as above
T4 sequence (P41143 whole entry): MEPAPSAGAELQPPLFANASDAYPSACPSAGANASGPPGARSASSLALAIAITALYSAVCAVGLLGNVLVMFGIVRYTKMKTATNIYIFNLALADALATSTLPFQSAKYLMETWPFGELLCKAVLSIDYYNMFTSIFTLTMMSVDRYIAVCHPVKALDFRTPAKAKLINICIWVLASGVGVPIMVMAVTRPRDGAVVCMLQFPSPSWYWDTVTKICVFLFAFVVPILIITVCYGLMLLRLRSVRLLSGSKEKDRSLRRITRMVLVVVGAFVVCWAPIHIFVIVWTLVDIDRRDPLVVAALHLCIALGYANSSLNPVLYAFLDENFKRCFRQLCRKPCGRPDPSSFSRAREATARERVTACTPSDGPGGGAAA
T1 sequence (P41143 whole entry): as above

## NC(=O)[C@@H]1CC(=O)NCCCC[C@@H](NC(=O)[C@@H](N)Cc2ccc(O)cc2)C(=O)N[C@@H](Cc2ccccc2)C(=O)N[C@@H](Cc2ccccc2)C(=O)N1 [compound 1, Tyr-c[D-Lys-Phe-Phe-Asp]NH2] (H-Y[dK]FFD-NH2; lactam 2-5)
[1]
  DOR pEC50 (CL95%): Crc incomplete
[2]
  EC50: 1.05 nM
[3]
  Ki: 0.35 ± 0.02 nM
[4]
  stool mass (constipation): serious constipation
[5]
  Ki: 171 ± 3.5 nM
[6]
  Ki NK1: Inactive
[7]
  EC50: 2.19 nM
[8]
  Ki: 1.12 ± 0.2 nM
[9]
  enzymatic stability: very good enzymatic stability

Reference: article PMC6943619, “Synthesis and Pharmacological Evaluation of Hybrids Targeting Opioid and Neurokinin Receptors” (Molecules, 2019)
